In the oligonucleotide strings, read from the 5' end, every base follows the letter of its sugar. An asterisk marks phosphorothioate; unmarked linkages are phosphodiester. Other units and linkages are bracketed, terminal groups are in braces. A string of capitals states the bases alone. {NAG37} = tridentate N-acetyl-galactosamine targeting ligand, structure (NAG37)s; [invAb] = inverted abasic unit; m = 2'-O-methyl; f = 2'-fluoro
How the values were obtained:
[1] = system: ANGPTL3 protein; test: Example 13: serum ANGPTL3 protein in HFCS diet-fed Rhesus monkeys; format: in vivo; details: for Avg ANGPTL3 Protein Normalized to Pre-Treatment (Fasted): 4.0 mg/kg sc on day 1 and day 29
Procedure: ANGPTL3 RNAi agent AD05488 was further evaluated in high-fructose corn syrup (HFCS) diet-fed Rhesus monkeys. Rhesus monkeys were placed on an HFCS diet 37 days prior to dosing. These animals were known to develop increased plasma triglycerides greater than 180 mg/dL on the HFCS diet. On day 1 and again on day 29, four (4) Rhesus monkeys were administered a subcutaneous injection containing 4.0 mg/kg of ANGPTL3 RNAi agent AD05488 formulated in saline (n=4). Two additional Rhesus monkeys were administered normal saline control.
Fasted blood samples were drawn for analysis, and serum samples were analyzed on days-8 (predose), 8, 15, 21, 29, and 36. ANGPTL3 expression levels, triglycerides, total cholesterol, high-density lipoprotein (HDL), and low-density lipoprotein (LDL) in serum were measured on a Cobas® Integra 400 (Roche Diagnostics), according to the manufacturer's recommendations.
The ANGPTL3 protein levels, triglyceride levels, total cholesterol levels, HDL levels, and LDL levels for each animal were normalized. For normalization, the level of ANGPTL3 protein, triglyceride, HDL, and total cholesterol, respectively, for each animal at a time point, was divided by the pre-treatment level of expression in that animal (in this case at day −8) to determine the ratio of expression “normalized to pre-treatment.”

[2] = system: ANGPTL3 gene; test: Example 11: dose response, serum LDL in mice; format: in vivo, C57bl/6 mice
Procedure: To assess the dose response of ANGPTL3 RNAi agent AD05488, six- to eight-week-old female C57bl/6 mice were used. Pre-dose serum samples were taken at day −1 after a four hour fast. At day 1, each mouse was given a single subcutaneous administration of 200 μl containing the respective mg/kg dose of an ANGPTL3 RNAi agent in D5W (dextrose in 5% water), or control (D5W) with no RNAi agent, according to the dosing groups recited in Table 53:
The RNAi agent tested (AD05488) included a modified sequence and an N-acetyl-galactosamine-containing targeting ligand conjugated to the 5′ terminal end of the sense strand. (See Tables 3, 4, and 5 for modified sequences and targeting ligand structures). The injections were performed between the skin and muscle (i.e. subcutaneous injections) into the loose skin over the neck and shoulder area. Four (4) mice in each group were tested (n=4). Serum was collected on days 8, 15, 22, and 29. Mice were fasted for four hours prior to each collection. ANGPTL3 protein levels in serum were measured by ELISA assay (R&D Systems), according to the manufacturer's recommendations. Triglycerides, total cholesterol, high-density lipoprotein (HDL), and low-density lipoprotein (LDL) in serum were measured on a Cobas® Integra 400 (Roche Diagnostics), according to the manufacturer's recommendations.
The ANGPTL3 protein levels, triglyceride levels, total cholesterol levels, HDL levels, and LDL levels for each animal were normalized. For normalization, the level of ANGPTL3 protein, triglyceride, HDL, and total cholesterol, respectively, for each animal at a time point, was divided by the pre-treatment level of expression in that animal (in this case at day −1) to determine the ratio of expression “normalized to pre-treatment.” Expression at a specific time point was then normalized to the D5W control group by dividing the “normalized to pre-treatment” ratio for an individual animal by the mean “normalized to pretreatment” ratio of all mice in the D5W control group.

[3] = system: ANGPTL3 gene; test: Example 9: serum total cholesterol in cynomolgus monkeys; format: in vivo, cynomolgus macaque (Macaca fascicularis); details: 2.0 mg/kg single SC injection day 1, cynos, n=3
Procedure: Additional ANGPTL3 RNAi agents were evaluated in cynomolgus monkeys. On day 1, cynomolgus macaque (Macaca fascicularis) primates (also referred to herein as “cynos”) were administered a single subcutaneous injection of 0.3 mL/kg (approximately 2-3 mL volume, depending on animal mass) containing 2.0 mg/kg of an ANGPTL3 RNAi agent, which included either AD05488, AD05743, AD05775, or AD05841, each formulated in saline. […] ANGPTL3 RNAi agents AD05488, AD05743, and AD05775 included nucleotide sequences designed to target position 304 of the ANGPTL3 gene. ANGPTL3 RNAi agent AD05841 included nucleotide sequences designed to target position 1035 of the ANGPTL3 gene.
Three (3) cynos in each group were tested (n=3). Blood samples were drawn and serum samples were analyzed on days −14 (predose), −7 (predose), 1 (pre-dose), 8, 15, 22, 29, and 35. Cynos were fasted overnight prior to each collection. ANGPTL3 protein levels in serum were measured by ELISA assay (R&D Systems), according to the manufacturer's recommendations. Triglycerides, total cholesterol, high-density lipoprotein (HDL), and low-density lipoprotein (LDL) in serum were measured on a Cobas® Integra 400 (Roche Diagnostics), according to the manufacturer's recommendations.
The ANGPTL3 protein levels, triglyceride levels, total cholesterol levels, HDL levels, and LDL levels for each animal were normalized. For normalization, the level of ANGPTL3 protein, triglyceride, HDL, and total cholesterol, respectively, for each animal at a time point, was divided by the average pre-treatment level of expression in that animal (in this case at days −14, −7, and 1) to determine the ratio of expression “normalized to pre-treatment.”

**Q.** Which results are given for “AD05488: RNAi agent duplex: antisense AM07235-AS, sense AM07234-SS (antisense mU*fA*mC*fUmGfAmUfCmAfAmAfUmAfUmGfUmUfGmAfG*mC; sense {NAG37}*[invAb]*mGmCmUmCmAmAmCmAfUfAfUmUmUmGmAmUmCmAmGmUmA*[invAb])”?
**A.** Avg ANGPTL3 Protein Normalized to Pre-Treatment (Fasted) ([1]; Day 8): 0.229; Avg ANGPTL3 Protein Normalized to Pre-Treatment (Fasted) ([1]; Day 15): 0.154; Avg ANGPTL3 Protein Normalized to Pre-Treatment (Fasted) ([1]; Day 21): 0.116; Avg ANGPTL3 Protein Normalized to Pre-Treatment (Fasted) ([1]; Day 29): 0.114; Avg ANGPTL3 Protein Normalized to Pre-Treatment (Fasted) ([1]; Day 36): 0.064; reduction in ANGPTL3 protein compared to pre-treatment ([1]; each of the measured time points, 4.0 mg/kg on days 1 and 29, HFCS diet-fed Rhesus monkeys): significant reduction; Avg LDL Normalized to Pre-Treatment and Control ([2]; 0.05 mg/kg single sc day 1, Day 8): 0.798; Avg LDL Normalized to Pre-Treatment and Control ([2]; 0.05 mg/kg single sc day 1, Day 15): 1.147; Avg LDL Normalized to Pre-Treatment and Control ([2]; 0.05 mg/kg single sc day 1, Day 22): 0.772; Avg LDL Normalized to Pre-Treatment and Control ([2]; 0.05 mg/kg single sc day 1, Day 29): 0.822; Avg LDL Normalized to Pre-Treatment and Control ([2]; 0.1 mg/kg single sc day 1, Day 8): 0.878; Avg LDL Normalized to Pre-Treatment and Control ([2]; 0.1 mg/kg single sc day 1, Day 15): 1.153; Avg LDL Normalized to Pre-Treatment and Control ([2]; 0.1 mg/kg single sc day 1, Day 22): 0.732; Avg LDL Normalized to Pre-Treatment and Control ([2]; 0.1 mg/kg single sc day 1, Day 29): 0.845; Avg LDL Normalized to Pre-Treatment and Control ([2]; 0.5 mg/kg single sc day 1, Day 8): 0.816; Avg LDL Normalized to Pre-Treatment and Control ([2]; 0.5 mg/kg single sc day 1, Day 15): 1.137; Avg LDL Normalized to Pre-Treatment and Control ([2]; 0.5 mg/kg single sc day 1, Day 22): 0.866; Avg LDL Normalized to Pre-Treatment and Control ([2]; 0.5 mg/kg single sc day 1, Day 29): 0.896; Avg LDL Normalized to Pre-Treatment and Control ([2]; 1.0 mg/kg single sc day 1, Day 8): 0.760; Avg LDL Normalized to Pre-Treatment and Control ([2]; 1.0 mg/kg single sc day 1, Day 15): 1.145; Avg LDL Normalized to Pre-Treatment and Control ([2]; 1.0 mg/kg single sc day 1, Day 22): 0.993; Avg LDL Normalized to Pre-Treatment and Control ([2]; 1.0 mg/kg single sc day 1, Day 29): 1.123; Avg LDL Normalized to Pre-Treatment and Control ([2]; 2.5 mg/kg single sc day 1, Day 8): 0.805; Avg LDL Normalized to Pre-Treatment and Control ([2]; 2.5 mg/kg single sc day 1, Day 15): 1.185; Avg LDL Normalized to Pre-Treatment and Control ([2]; 2.5 mg/kg single sc day 1, Day 22): 0.915; Avg LDL Normalized to Pre-Treatment and Control ([2]; 2.5 mg/kg single sc day 1, Day 29): 0.814; Avg LDL Normalized to Pre-Treatment and Control ([2]; 5.0 mg/kg single sc day 1, Day 8): 0.802; Avg LDL Normalized to Pre-Treatment and Control ([2]; 5.0 mg/kg single sc day 1, Day 15): 1.170; Avg LDL Normalized to Pre-Treatment and Control ([2]; 5.0 mg/kg single sc day 1, Day 22): 0.909; Avg LDL Normalized to Pre-Treatment and Control ([2]; 5.0 mg/kg single sc day 1, Day 29): 0.932; Average Total Cholesterol Normalized to Pre-Treatment ([3]; Day 8): 0.823; Average Total Cholesterol Normalized to Pre-Treatment ([3]; Day 15): 0.744; Average Total Cholesterol Normalized to Pre-Treatment ([3]; Day 22): 0.709; Average Total Cholesterol Normalized to Pre-Treatment ([3]; Day 29): 0.687; Average Total Cholesterol Normalized to Pre-Treatment ([3]; Day 35): 0.659

Reference: patent US12729377B2, “RNAi agents and compositions for inhibiting expression of angiopoietin-like 3 (ANGPTL3), and methods of use” (Arrowhead Pharmaceuticals, Inc., priority 2017, dated 2026)
